The record followed here is patent US10161932B2, “Azetidine-substituted fluorescent compounds” (HOWARD HUGHES MEDICAL INSTITUTE, priority 2014, dated 2018).

Series [1] is described as follows: Quantum yield measurement (Quantaurus-QY spectrometer). Type of series: physicochemical. The conditions noted are these: for increase in quantum yield / brightness relative to parent N,N-dialkyl dye: azetidine-substituted vs parent fluorophore.
Description: All reported quantum yield values were measured in under identical conditions using a Quantaurus-QY spectrometer (C11374, Hamamatsu). Measurements were carried out using dilute samples (A<0.1) and self-absorption corrections were performed using the instrument software. Reported values are averages (n=3).
Series [2] is described as follows: Absorption and fluorescence spectroscopy of dyes. Type of series: physicochemical. As for the experimental part:
Phosphate buffered saline (PBS) was at pH 7.4 unless otherwise noted.
Spectroscopy was performed using 1-cm path length, 3.5-mL quartz cuvettes from Starna Cells or 1-cm path length, 1.0-mL quartz microcuvettes from Hellma. All measurements were taken at ambient temperature (22±2° C.) in 10 mM HEPES, pH 7.3 buffer unless otherwise noted. Absorption spectra were recorded on a Cary Model 100 spectrometer (Varian); reported values for extinction coefficients (ε) are averages (n=3). Fluorescence spectra were recorded on a Cary Eclipse fluorometer (Varian). Normalized spectra are shown for clarity.

The mark [3] stands for this setting: Table 1, trifluoroethanol containing 0.1% (v/v) trifluoroacetic acid.

Read-outs that look alike come from different tables or passages of the source.

On to `CN(C)c1ccc2cc3ccc(N(C)C)cc3nc2c1` [Acridine Orange, reference compound], for which the ϕ in series [1] (Table 3, 10 mM HEPES pH 7.3) is 0.21. Also, the “ϕ (quantum yield)” value in series [1] (aqueous buffer) was determined as 0.21. Further, in series [2] (Table 3, 10 mM HEPES pH 7.3), the ε is 50,000 M^−1 cm^−1, the λem amounted to 528 nm and the λmax stood at 493 nm.

`Cc1cc(=O)oc2cc(N(C)C)ccc12` [Coumarin 461, reference compound]: the “ϕ (quantum yield)” value in series [1] stood at 0.19. In series [1] (pH 7.3), this compound yielded a ϕ of 0.19. For the same compound, in series [2] (Table 3, 10 mM HEPES pH 7.3), the ε is on record as 18,000 M^−1 cm^−1, the λem is 470 nm and the λmax was found to be 372 nm. The “ε (extinction coefficient)” value in series [2] (aqueous buffer) worked out at 18000 M⁻¹ cm⁻¹.

`CC1(C)CN(c2ccc3c(-c4ccccc4C(=O)[O-])c4ccc(=[N+]5CC(C)(C)C5)cc-4oc3c2)C1` [Example 8, 2-(3,6-Bis(3,3-dimethylazetidin-1-yl)xanthylium-9-yl)benzoate] gave a ϕ in series [1] (Table 1, 10 mM HEPES pH 7.3) of 0.83. Also, in series [2] (Table 1, 10 mM HEPES pH 7.3), the ε is reported as 110,000 M^−1 cm^−1, the λem was 572 nm and the λmax worked out at 550 nm.

In turn, `O=C([O-])c1ccccc1-c1c2ccc(=[N+]3CC(F)(F)C3)cc-2oc2cc(N3CC(F)(F)C3)ccc12` [Example 9, 2-(3,6-Bis(3,3-difluoroazetidin-1-yl)xanthylium-9-yl)benzoate] registered a ϕ in series [1] (Table 1, 10 mM HEPES pH 7.3) of 0.91. Further, in series [2] (Table 1, 10 mM HEPES pH 7.3), the ε is on record as 94,000 M^−1 cm^−1, the λem amounted to 549 nm and the λmax is given as 525 nm.

Take `O=C([O-])c1ccccc1-c1c2ccc(=[N+]3CC(F)C3)cc-2oc2cc(N3CC(F)C3)ccc12` (centres unmarked) [Example 10, 2-(3,6-Bis(3-fluoroazetidin-1-yl)xanthylium-9-yl)benzoate]: in series [1] (Table 1, 10 mM HEPES pH 7.3), the ϕ was determined as 0.87. In addition, in series [2] (Table 1, 10 mM HEPES pH 7.3), the ε is 113,000 M^−1 cm^−1, the λem was 560 nm and the λmax stood at 536 nm.

`COC1CN(c2ccc3c(-c4ccccc4C(=O)[O-])c4ccc(=[N+]5CC(OC)C5)cc-4oc3c2)C1` (centres unmarked) [Example 11, 2-(3,6-Bis(3-methoxyazetidin-1-yl)xanthylium-9-yl)benzoate]: the ϕ in series [1] (Table 1, 10 mM HEPES pH 7.3) stood at 0.88. Further, in series [2] (Table 1, 10 mM HEPES pH 7.3), the ε is given as 109,000 M^−1 cm^−1, the λem is listed as 564 nm and the λmax was 541 nm.

The compound `N#CC1CN(c2ccc3c(-c4ccccc4C(=O)[O-])c4ccc(=[N+]5CC(C#N)C5)cc-4oc3c2)C1` (centres unmarked) [Example 12, 2-(3,6-Bis(3-cyanoazetidin-1-yl)xanthylium-9-yl)benzoate] gave a ϕ in series [1] (Table 1, 10 mM HEPES pH 7.3) of 0.89. In series [2] (Table 1, 10 mM HEPES pH 7.3), the ε is on record as 108,000 M^−1 cm^−1, the λem is 557 nm and the λmax is 533 nm.

In turn, `CN(C)C1CN(c2ccc3c(-c4ccccc4C(=O)[O-])c4ccc(N5CC(N(C)C)C5)cc4[o+]c3c2)C1` [Example 13, 2-(3,6-Bis(3-(dimethylamino)azetidin-1-yl)xanthylium-9-yl)benzoate] yielded a ϕ in series [1] (Table 1, 10 mM HEPES pH 7.3) of 0.57. Besides, in series [2] (Table 1, 10 mM HEPES pH 7.3), the ε was 111,000 M^−1 cm^−1, the λem worked out at 565 nm and the λmax was 542 nm.

For `O=C([O-])c1ccccc1-c1c2ccc(=[N+]3CC(C(=O)O)C3)cc-2oc2cc(N3CC(C(=O)O)C3)ccc12` (centres unmarked) [Example 16, 2-(3,6-Bis(3-carboxyazetidin-1-yl)xanthylium-9-yl)benzoate], the ϕ in series [1] (Table 1, 10 mM HEPES pH 7.3) is 0.87. In addition, in series [2] (Table 1, 10 mM HEPES pH 7.3), the ε was 108,000 M^−1 cm^−1, the λem stood at 568 nm and the λmax is reported as 545 nm.

In series [1] (Table 1, 10 mM HEPES pH 7.3), `O=C(O)CC1CN(c2ccc3c(-c4ccccc4C(=O)[O-])c4ccc(=[N+]5CC(CC(=O)O)C5)cc-4oc3c2)C1` (centres unmarked) [Example 17, 2-(3,6-Bis(3-(carboxymethyl)azetidin-1-yl)xanthylium-9-yl)benzoate] returned a ϕ of 0.87. In addition, in series [2] (Table 1, 10 mM HEPES pH 7.3), the ε is listed as 111,000 M^−1 cm^−1, the λem turned out to be 572 nm and the λmax came to 549 nm.

Take `C[Si]1(C)C2=CC(=[N+]3CCC3)C=CC2=C(c2ccccc2C(=O)[O-])c2ccc(N3CCC3)cc21` [Example 30, 2-(3,7-Di(azetidin-1-yl)-5,5-dimethyldibenzo[b,e]silin-10-ylium-10(5H)-yl)benzoate]: the ϕ in series [1] (Table 1, 10 mM HEPES pH 7.3) was 0.54; in series [1] (Table 3, 10 mM HEPES pH 7.3), 0.54. Besides, in series [1] (aqueous buffer), the “ϕ (quantum yield)” value is 0.54. Besides, the λem in series [2] (Table 1, 10 mM HEPES pH 7.3) came out at 664 nm; in series [2] (Table 3, 10 mM HEPES pH 7.3), 664 nm. The λmax in series [2] (Table 1, 10 mM HEPES pH 7.3) is on record as 646 nm; in series [2] (Table 3, 10 mM HEPES pH 7.3), 646 nm; in series [2] (text b257, unit not given), 646. The ε in series [2] (Table 1, ethanol containing 0.1% (v/v) trifluoroacetic acid) is given as 152,000^b M^−1 cm^−1; in series [2] (Table 3, ethanol containing 0.1% v/v trifluoroacetic acid) it was 152,000^a M^−1 cm^−1. The “ε (extinction coefficient)” value in series [2] (acidic ethanol) came to 152000 M⁻¹ cm⁻¹.

With `C[Si]1(C)C2=CC(=[N+]3CC(F)C3)C=CC2=C(c2ccccc2C(=O)[O-])c2ccc(N3CC(F)C3)cc21` (centres unmarked) [Example 31, 2-(3,7-Bis(3-fluoroazetidin-1-yl)-5,5-dimethyldibenzo[b,e]silin-10-ylium-10(5H)-yl)benzoate], the ϕ in series [1] (Table 1, 10 mM HEPES pH 7.3) stood at 0.56. Further, in series [2] (Table 1, 10 mM HEPES pH 7.3), the λem is given as 652 nm and the λmax stood at 635 nm. For the same compound, in series [2] (setting [3]), the ε is listed as 167,000^a M^−1 cm^−1.

For the compound `CC1(C)C2=CC(=[N+]3CCC3)C=CC2=C(c2ccccc2C(=O)[O-])c2ccc(N3CCC3)cc21` [Example 40, 2-(3,6-Di(azetidin-1-yl)-10,10-dimethylanthracen-9-ylium-9(10H)-yl)benzoate], the ϕ in series [1] (Table 1, 10 mM HEPES pH 7.3) is 0.67; in series [1] (Table 3, 10 mM HEPES pH 7.3), 0.67. For the same compound, the “ϕ (quantum yield)” value in series [1] (aqueous buffer) is 0.67. Moreover, the ε in series [2] (Table 1, 10 mM HEPES pH 7.3) is given as 99,000 M^−1 cm^−1; in series [2] (Table 3, 10 mM HEPES pH 7.3), 99,000 M^−1 cm^−1. The λem is recorded as 631 nm in series [2] (Table 1, 10 mM HEPES pH 7.3) and 631 nm in series [2] (Table 3, 10 mM HEPES pH 7.3). Further, the λmax in series [2] (Table 1, 10 mM HEPES pH 7.3) is recorded as 608 nm; in series [2] (Table 3, 10 mM HEPES pH 7.3), 608 nm. Moreover, in series [2] (aqueous buffer), the “ε (extinction coefficient)” value was 99000 M⁻¹ cm⁻¹.

`CC1(C)C2=CC(=[N+]3CC(F)(F)C3)C=CC2=C(c2ccccc2C(=O)[O-])c2ccc(N3CC(F)(F)C3)cc21` [Example 41, 2-(3,6-Bis(3,3-difluoroazetidin-1-yl)-10,10-dimethylanthracen-9-ylium-9(10H)-yl)benzoate] had a ϕ in series [1] (Table 1, 10 mM HEPES pH 7.3) of 0.78. In series [2] (Table 1, 10 mM HEPES pH 7.3), the λem is 609 nm and the λmax was 585 nm. In addition, the ε in series [2] (setting [3]) is 156,000^a M^−1 cm^−1.

Consider `Cc1cc(=O)oc2cc(N3CCC3)ccc12` [Example 49, 7-(Azetidin-1-yl)-4-methyl-2H-chromen-2-one], for which the ϕ in series [1] (Table 3, 10 mM HEPES pH 7.3) is on record as 0.96. For the same compound, the “ϕ (quantum yield)” value in series [1] (aqueous buffer) amounted to 0.96. The “increase in quantum yield / brightness relative to parent N,N-dialkyl dye” value in series [1] was “five-fold”. Besides, in series [2] (Table 3, 10 mM HEPES pH 7.3), the ε was 15,000 M^−1 cm^−1, the λem was 467 nm and the λmax turned out to be 354 nm. In series [2] (aqueous buffer), the “ε (extinction coefficient)” value worked out at 15000 M⁻¹ cm⁻¹.

`O=C(O)c1cc2ccc(N3CCC3)cc2oc1=O` [Example 51, 7-(Azetidin-1-yl)-2-oxo-2H-chromene-3-carboxylic acid] gave a ϕ in series [1] (Table 3, 10 mM HEPES pH 7.3) of 0.84. The “ϕ (quantum yield)” value in series [1] (aqueous buffer) is reported as 0.84. In addition, the “increase in quantum yield / brightness relative to parent N,N-dialkyl dye” value in series [1] is given as ~30 fold. Further, in series [2] (Table 3, 10 mM HEPES pH 7.3), the ε is reported as 24,000 M^−1 cm^−1, the λem stood at 470 nm and the λmax is 387 nm. In series [2] (aqueous buffer), the “ε (extinction coefficient)” value worked out at 24000 M⁻¹ cm⁻¹.
